Source: patent US20110251230A1, “THERAPEUTICS FOR NEUROLOGICAL DISORDERS” (UNIVERSITY OF SHEFFIELD, priority 2008, published 2011)
Read-outs that look alike come from different tables or passages of the source.

Columns and labels:
[1] = test system: 1321N1 (human) astrocytic line; test: 1321N1 oxidative stress assay (serum withdrawal, DCF); settings: for Lowest dose with toxicity: 1321N1; for IC50: 1321N1, 24 h pre-treatment, serum withdrawal, DCF; for Maximal % reduction in Oxidative stress: 1321N1, DCF fluorescence
[2] = test system: NSC34 mouse motor neuronal cells; test: NSC34 oxidative stress assay (serum withdrawal, DCF); settings: for Lowest dose with toxicity: NSC34; for Maximal % reduction in Oxidative stress: NSC34, DCF fluorescence, negative = pro-oxidant
Protocol: A simple oxidative stress assay was used to determine whether preconditioning with NRF2-ARE inducing drugs could protect against a subsequent oxidative stress insult (serum withdrawal). The NSC34, C6 and 1321N1 cells were plated in 96 well tissue culture plates to achieve 30% confluency. […] Media was then replaced with serum free, phenol free media for 5 hrs. […] Cell survival assay was then performed on the cells as protection is measured as % reduction in DCF signal, therefore data points were excluded where a decrease in cell number was measured.
Briefly methylthiazolyldiphenyl-tetrazolium bromide (MTT) was added to the cells and a blank well to a final concentration 0.5 mg/ml and incubated at 37° C. for 1-3 hrs depending on the cell line used.

C6 (rat) astrocytic line = test: C6 oxidative stress assay (serum withdrawal, DCF); settings: for Lowest dose with toxicity: C6; for IC50: C6, 24 h pre-treatment, serum withdrawal, DCF; for Maximal % reduction in Oxidative stress: C6, DCF fluorescence
[3] = test system: NRF2-ARE pathway in the CHO 4× ARE-TK cell line; test: ARE reporter assay in CHO 4×ARE-TK-GFP cell line (GFP induction, EthD1 toxicity); settings: for maximal fold induction: read-out: Average fold GFP induction at maximal response
Protocol: Chinese Hamster Ovary (CHO), NSC34 mouse motor neuronal cells, C6 (rat) and 1321N1 (human) astrocytic lines were routinely maintained in DMEM supplemented with 10% FBS and penicillin/streptomycin. […] These plasmids were transfected into CHO, C6 and 1321N1 cell lines using Lipofectamine 2000 (Invitrogen) and following 10-14 days of selection in 0.5 mg/ml G418 they were expanded and selected for basal eGFP expression using fluorescence activated cell sorting (BD, FACSAria) with two sequential cell sorts for each cell line. These mixed populations of stable transfectants with basal eGFP expression were used in subsequent assays and designated 4×ARE-TK-GFP for the ARE containing line and TK-GFP for the control cell line. […]
Confluent cultures of 4×ARE-TK-GFP CHO or TK-GFP CHO expressing cells in 96 or 384-well tissue-culture plates were treated with drug (0.01-100 µM in triplicate) or vehicle (0.1-1% DMSO) in FCS-free DMEM in triplicate for 24 hours. The media was removed and replaced with the same volume of PBS containing 0.3 μM EthD1. […] Non-linear regression was used to fit a sigmoidal dose-response curve on a semi-Log plot to calculate the EC50 using GraphPad Prism (GraphPad Software). The reporter assay was conducted in a similar fashion in C6 and 1321N1 astrocyte cell lines stably transfected with the 4×ARE-TK-GFP and TK-GFP constructs except that Eth D1 was added directly in the media and read prior to washing the cells once and reading the […] signal. […]
The compounds were applied in triplicate to confluent cells in 96 well plates in serum free medium for 24 hours and the induction of GFP measured in a fluorescence plate reader. […]

[4] = read-out: Average EC50, CHO 4×ARE-TK-GFP, GFP induction, 24 h

Compound | Lowest dose with toxicity [1] | Lowest dose with toxicity [2] | Lowest dose with toxicity (C6 (rat) astrocytic line) | Lowest dose with toxicity ([3]; Chinese hamster, 24 h) | maximal fold induction ([3]; Cricetulus griseus, 24 h) | IC50 [1] | IC50 (C6 (rat) astrocytic line) | EC50 ([3]; Cricetulus griseus, 24 h, read-out: Average EC50, CHO 4×ARE-TK-GFP, GFP induction, 24 h) | Lowest dose with toxicity [3] | Lowest dose with toxicity ([3]; CHO ARE reporter assay) | EC50 ([3]; Cricetulus griseus, 24 h, read-out: Average EC50) | Maximal % reduction in Oxidative stress [1] | Maximal % reduction in Oxidative stress [2] | Maximal % reduction in Oxidative stress (C6 (rat) astrocytic line) | Average fold GFP induction at maximal response ([3]; CHO 4×ARE-TK-GFP, 24 h) | EC50 [3, 4]
Oc1ccc(O)cc1 [hydroquinone, reference compound] | none | none | none | 100 µM | 2.95 |  |  |  |  |  |  |  |  |  |  | 
OC[C@H]1O[C@@H](n2cnc3c(NCc4ccco4)ncnc32)[C@H](O)[C@@H]1O [kinetin riboside] | 3 µM | 3 µM | 10 µM | 30 µM | 1.97 | 0.246 µM | 3.84 µM | 3.39 µM |  |  |  |  |  |  |  | 
CC(=O)CCC(=O)O [levulinc acid, Levulinic acid] | none | none | none |  | 2.94 |  |  |  | None |  |  |  |  |  |  | 
C=C(C)C(=O)C(=CC(=O)O)OC [penicillic acid] | none | none | none |  | 2.64 |  | 4.62 µM |  |  | 100 µM | 14.9 µM |  |  |  |  | 
COc1ccc2c(c1)OC/C(=C/c1ccc(OC)c(OC)c1)C2=O [sappanone A trimethyl ether] | none | none | none |  |  | 0.279 µM |  |  |  | 100 µM |  | 40% | −60% | 27% | 1.99 fold | 3.5 µM
COC(=O)[C@H](O)[C@H]1C(C)(C)[C@H](OC(C)=O)[C@@H]2CC3=C4CC(=O)O[C@@H](c5ccoc5)[C@]4(C)CC[C@@H]3[C@@]1(C)C2=O [swietenolide 3 acetate] | none | 0.3 µM | none |  |  |  | 4.22 µM |  |  | 100 µM |  | 60% | 0% | 50% | 2.82 fold | 3.5 µM
Euphol acetate | none | none | none |  |  | 18 µM |  |  |  | 100 µM |  | 38% | −43% | 0% | 2.20 fold | ~99 µM
methyl-7-deshydroxypyrogallin-4-carboxylate | none | 0.3 µM | none |  |  |  | 2.95 µM |  |  | 100 µM |  | 45% | −23% | 70% | 2.83 fold | 2050 µM
